Assay results from EP4635944A1, “2-AZABICYCLO[3.1.1]HEPTANE COMPOUND” (Daiichi Sankyo Company, Limited, priority 2022, dated 2024).

Assays:
[1] = target: T1, human OX2R (Homo sapiens, UniProt O43614); assay: Evaluation of OX2R agonist activity (intracellular calcium, CHO-K1 cells with forced expression of human OX2R); format: cell-based; conditions: CHO-K1 cells expressing human OX2R; 100% = 5 µM of the reference compound; read-out: hOX2R EC50
T1 construct: host or cells: CHO-K1 (Chinese Hamster Ovary K1)
T1 sequence (O43614 1-444): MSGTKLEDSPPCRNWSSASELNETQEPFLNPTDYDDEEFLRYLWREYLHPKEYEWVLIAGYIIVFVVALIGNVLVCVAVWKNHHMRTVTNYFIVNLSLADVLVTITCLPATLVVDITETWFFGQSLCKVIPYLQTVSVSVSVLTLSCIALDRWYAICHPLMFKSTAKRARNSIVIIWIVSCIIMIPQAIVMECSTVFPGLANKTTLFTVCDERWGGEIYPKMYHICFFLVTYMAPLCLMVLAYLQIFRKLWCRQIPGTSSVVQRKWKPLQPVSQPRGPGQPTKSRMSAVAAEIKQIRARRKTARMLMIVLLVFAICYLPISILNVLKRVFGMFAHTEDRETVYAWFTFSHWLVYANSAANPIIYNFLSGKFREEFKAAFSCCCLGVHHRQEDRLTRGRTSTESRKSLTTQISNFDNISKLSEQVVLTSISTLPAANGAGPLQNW
Summary of the method: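 Cells seeded 7500/well, cultured 24 h, loaded with Fluo 4-AM (2.5 µg/mL final) plus probenecid for 30 min. Calcium response read as 480/540 nm excitation ratio; max–min signal 5–7 s after compound addition, normalized to buffer (0%) and 5 µM reference agonist (100%). EC50 from concentration series; 0.5% DMSO final.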

[2] = Evaluation of ERM production (GSH adduct detection in human liver microsomes); format: in vitro ADME; conditions: test compound 500 µM, human liver microsomes 2 mg/mL, GSH/SI-GSH, 37°C for 60 minutes; negative = no metabolite GSH adduct pair peak
Procedure: Evaluation of ERM production from OX2R agonist
The test compound (final concentration was 500 µM, dissolved in DMSO/acetonitrile = 1/9), pooled human liver microsomes (final concentration was 2 mg/mL), L-glutathione reduced (GSH, final concentration was 0.5 mM), potassium phosphate buffer (pH 7.4, final concentration was 100 mM), and stable isotope labeled GSH (SI-GSH, final concentration was 0.5 mM) were admixed and preincubated at 37°C for 3 minutes. Thereafter, a mixed solution of glucose-6-phosphate (final concentration was 25 mM), β-nicotinamide adenine dinucleotide phosphate (final concentration was 0.25 mM), glucose-6-phosphate dehydrogenase (final concentration was 2 U/mL), and magnesium chloride (final concentration was 10 mM) was added, and incubation was performed at 37°C for 60 minutes. After the incubation, the reaction was stopped by adding a 2-fold volume of acetonitrile. A portion of the supernatant after centrifugation (about 1200 × g, 4°C, 15 minutes) was injected into a liquid chromatograph quadrupole time-of-flight mass spectrometer (Q-Tof) for analysis. The mass number of metabolites, GSH adduct and SI-GSH adduct, predicted from the chemical structural formula of the test compound was calculated, and the presence of the corresponding peaks in the measurement sample was checked. Peaks with the same retention time and approximately equal peak area of the detected peaks of the metabolites, GSH adduct and SI-GSH adduct, were extracted as pair peaks. The presence of a pair peak determined to be a metabolite GSH adduct was considered positive for ERM production potential, whereas the absence of such a peak was considered negative for ERM production potential.

[3] = Evaluation of metabolic stability in human liver microsomes; format: in vitro ADME; conditions: for Human metabolic stability Residual ratio (%): test compound 1 µM, human liver microsomes 0.5 mg/mL, 30 minutes at 37°C; for metabolic stability compared to the corresponding compounds that were not deuterated: human liver microsomes, 30 minutes, deuterated at specific positions
Procedure: Evaluation of metabolic stability of OX2R agonist
The test compound (final concentration was 1 µM, dissolved in DMSO/acetonitrile = 1/99), pooled human liver microsomes (final concentration was 0.5 mg/mL), and sodium phosphate buffer (pH 7.4, final concentration was 100 mM) were admixed and preincubated at 37°C for 15 minutes. Thereafter, a mixed solution of glucose-6-phosphate (final concentration was 10 mM), glucose-6-phosphate dehydrogenase (final concentration was 1 U/mL), and magnesium chloride (final concentration was 3.3 mM) was added and a certain amount of the mixture was collected. Then, an acetonitrile/methanol mixed solution (75/25, v/v) containing a 4.5-fold volume of internal standard substances (final concentrations: phenacetin: 1 ng/mL, niflumic acid: 15 ng/mL, furosemide: 20 ng/mL) was added to stop the reaction (0 min sample). Subsequently, β-nicotinamide adenine dinucleotide phosphate (final concentration was 1 mM) was added, and after 30 minutes of incubation at 37°C, a certain amount of the mixture was collected, to which an acetonitrile/methanol mixed solution (75/25, v/v) containing a 4.5-fold volume of the internal standard substances was added to stop the reaction (30 min sample). For both samples, a portion of the supernatant after centrifugation (about 1200 × g, 4°C, 15 minutes) was injected into a liquid chromatograph tandem quadrupole mass spectrometer (LC-MS/MS) for analysis. The metabolic stability was evaluated by comparing the test compound/internal standard substance ratio of the 30 min sample with the 0 min sample and calculating the residual ratio of the test compound. […]

Row | EC50 [1] | ERM production potential [2] | Compound | Human metabolic stability Residual ratio (%) [3] | metabolic stability compared to the corresponding compounds that were not deuterated [3]
1 | 88 nM | negative | CC(C)(O)C(=O)N1C2CC(C2)C(NS(C)(=O)=O)C1Cc1cc(F)cc(-c2ccccc2)c1F (single isomer, unassigned) [Example 59, N-[(3S,4S)-3-[(2,5-Difluoro[biphenyl]-3-yl)methyl]-2-(2-hydroxy-2-methylpropanoyl)-2-azabicyclo[3.1.1]heptan-4-yl]methanesulfonamide or N-[(3R,4R)-3-[(2,5-difluoro[biphenyl]-3-yl)methyl]-2-(2-hydroxy-2-methylpropanoyl)-2-azabicyclo[3.1.1]heptan-4-yl]methanesulfonamide] | – | –
2 | 70 nM | negative | CC(C)(O)C(=O)N1C2CC(C2)C(NS(C)(=O)=O)C1Cc1cc(F)cc(-c2cccc(Cl)c2)c1F (single isomer, unassigned) [Example 67, N-[(3S,4S)-3-[(3'-Chloro-2,5-difluoro[biphenyl]-3-yl)methyl]-2-(2-hydroxy-2-methylpropanoyl)-2-azabicyclo[3.1.1]heptan-4-yl]methanesulfonamide or N-[(3R,4R)-3-[(3'-chloro-2,5-difluoro[biphenyl]-3-yl)methyl]-2-(2-hydroxy-2-methylpropanoyl)-2-azabicyclo[3.1.1]heptan-4-yl]methanesulfonamide] | – | –
3 | 20 nM | negative | [2H]C([2H])([2H])C([2H])(O)C(=O)N1C2CC(C2)C(NS(=O)(=O)CC)C1Cc1cc(F)cc(-c2ccccc2)c1F (single isomer, unassigned) [Example 92, N-{3-[(2,5-Difluoro[biphenyl]-3-yl)methyl]-2-[2-hydroxy(^2H4)propanoyl]-2-azabicyclo[3.1.1]heptan-4-yl}ethanesulfonamide] | – | –
4 | 297 nM | negative | CC(C)(O)C(=O)N1C2CC(C2)[C@H](NS(C)(=O)=O)[C@@H]1Cc1cccc(-c2ccccc2)c1F [Example 10, N-[(3S,4S)-3-[(2-Fluoro[biphenyl]-3-yl)methyl]-2-(2-hydroxy-2-methylpropanoyl)-2-azabicyclo[3.1.1]heptan-4-yl]methanesulfonamide] | – | –
5 | 535 nM | negative | C[C@@H](O)C(=O)N1C2CC(C2)[C@H](NS(C)(=O)=O)[C@@H]1Cc1cccc(-c2ccn(C)n2)c1F [Example 32, N-{(3S,4S)-3-[2-Fluoro-3-(1-methyl-1H-pyrazol-3-yl)benzyl]-2-[(2R)-2-hydroxypropanoyl]-2-azabicyclo[3.1.1]heptan-4-yl}methanesulfonamide] | – | –
6 | 38 nM | negative | C[C@@H](O)C(=O)N1C2CC(C2)[C@H](NS(C)(=O)=O)[C@@H]1Cc1cc(F)cc(-c2ccccc2)c1F [Example 58, N-{(3S,4S)-3-[(2,5-Difluoro[biphenyl]-3-yl)methyl]-2-[(2R)-2-hydroxypropanoyl]-2-azabicyclo[3.1.1]heptan-4-yl}methanesulfonamide] | 34% | –
7 | 14 nM | negative | CS(=O)(=O)N[C@H]1C2CC(C2)N(C(=O)C2(O)CCC2)[C@H]1Cc1cccc(-c2ccccc2)c1F [Example 62, N-{(3S,4S)-3-[(2-Fluoro[biphenyl]-3-yl)methyl]-2-[(1-hydroxycyclobutyl)carbonyl]-2-azabicyclo[3.1.1]heptan-4-yl}methanesulfonamide] | – | –
8 | 72 nM | negative | CC(C)(O)C(=O)N1C2CC(F)(C2)[C@H](NS(C)(=O)=O)[C@@H]1Cc1cc(F)cc(-c2ccccc2)c1F [Example 74, N-[(3S,4R)-3-[(2,5-Difluoro[biphenyl]-3-yl)methyl]-5-fluoro-2-(2-hydroxy-2-methylpropanoyl)-2-azabicyclo[3.1.1]heptan-4-yl]methanesulfonamide] | – | –
9 | 46 nM | negative | CC(C)(O)C(=O)N1C2CC(F)(C2)[C@H](NS(C)(=O)=O)[C@@H]1Cc1cc(F)cc(-c2cccc(Cl)c2)c1F [Example 77, N-[(3S,4R)-3-[(3'-Chloro-2,5-difluoro[biphenyl]-3-yl)methyl]-5-fluoro-2-(2-hydroxy-2-methylpropanoyl)-2-azabicyclo[3.1.1]heptan-4-yl]methanesulfonamide] | – | –

Row | Compound | EC50 [1] | ERM production potential [2] | Human metabolic stability Residual ratio (%) [3] | metabolic stability compared to the corresponding compounds that were not deuterated [3]
10 | [2H]C([2H])([2H])[C@@]([2H])(O)C(=O)N1C2CC(C2)[C@H](NS(C)(=O)=O)[C@@H]1Cc1cccc(-c2ccccc2)c1F [Example 76, N-{(3S,4S)-3-[(2-Fluoro[biphenyl]-3-yl)methyl]-2-[(2R)-2-hydroxy(^2H4)propanoyl]-2-azabicyclo[3.1.1]heptan-4-yl}methanesulfonamide] | 18 nM | negative | 59% | improved metabolic stability
11 | [2H]C([2H])([2H])[C@@]([2H])(O)C(=O)N1C2CC(C2)[C@H](NS(C)(=O)=O)[C@@H]1Cc1cc(F)cc(-c2ccccc2)c1F [Example 88, N-{(3S,4S)-3-[(2,5-Difluoro[biphenyl]-3-yl)methyl]-2-[(2R)-2-hydroxy(^2H4)propanoyl]-2-azabicyclo[3.1.1]heptan-4-yl}methanesulfonamide] | 43 nM | negative | 59% | improved metabolic stability
12 | [2H]C([2H])([2H])[C@@]([2H])(O)C(=O)N1C2CC(C2)[C@H](NS(=O)(=O)CC)[C@@H]1Cc1cccc(-c2ccccc2)c1F [Example 94, N-{(3S,4S)-3-[(2-Fluoro[biphenyl]-3-yl)methyl]-2-[(2R)-2-hydroxy(^2H4)propanoyl]-2-azabicyclo[3.1.1]heptan-4-yl}ethanesulfonamide] | 22 nM | negative | – | –
